# Source: patent US20170333591A9, “ABSORBENT ARTICLE COMPRISING MALODOR REDUCTION COMPOSITIONS” (The Procter & Gamble Company, priority 2014, published 2017)
# Assay: Log of liquid dish neat product liquid-air partition coefficient
# Format: physicochemical
# Details: not given
row,Structure (SMILES),Comment Code: Log of liquid dish neat product liquid-air partition coefficient
1,CCOC(=O)C=Cc1ccccc1 [Material 400],K (Log of liquid dish neat product liquid-air partition coefficient greater than or equal to 7)
2,CC1CCOC(c2ccccc2)C1 (stereo not shown) [Material 420],K (Log of liquid dish neat product liquid-air partition coefficient greater than or equal to 7)
3,C=CC(C)CCCC(C)(C)O (stereo not shown) [Material 437],K (Log of liquid dish neat product liquid-air partition coefficient greater than or equal to 7)
4,CCCc1ccc(O)c(OC)c1 [Material 440],K (Log of liquid dish neat product liquid-air partition coefficient greater than or equal to 7)
5,CC(=O)CCC1C(C)=CCCC1(C)C (stereo not shown) [Material 448],K (Log of liquid dish neat product liquid-air partition coefficient greater than or equal to 7)
6,c1ccc(COCc2ccccc2)cc1 [Material 454],K (Log of liquid dish neat product liquid-air partition coefficient greater than or equal to 7)
7,CCCC(=O)OC1CC2CC1C1CC=CC21 (stereo not shown) [Material 484],K (Log of liquid dish neat product liquid-air partition coefficient greater than or equal to 7)
8,CC(C)C(=O)OC1CC2CC1C1C=CCC21 (stereo not shown) [Material 487],K (Log of liquid dish neat product liquid-air partition coefficient greater than or equal to 7)
9,C=CC1(C)Cc2occ(C)c2CC1C(=C)C (stereo not shown) [Material 488],K (Log of liquid dish neat product liquid-air partition coefficient greater than or equal to 7)
10,COc1cc(C)ccc1O [Material 492],K (Log of liquid dish neat product liquid-air partition coefficient greater than or equal to 7)
11,CC(C)(O)CCC1CCCCC1 [Material 496],K (Log of liquid dish neat product liquid-air partition coefficient greater than or equal to 7)
12,C=CC(C)(C#N)Cc1ccccc1 (stereo not shown) [Material 504],K (Log of liquid dish neat product liquid-air partition coefficient greater than or equal to 7)
13,C/C=C\c1ccc(O)c(OC)c1 [Material 528],K (Log of liquid dish neat product liquid-air partition coefficient greater than or equal to 7)
14,C/C=C(\C)C(=O)OCC/C=C\CC [Material 536],K (Log of liquid dish neat product liquid-air partition coefficient greater than or equal to 7)

# Same assay, conditions: code letter within the Comment Code cell
row,Structure (SMILES),Log of liquid dish neat product liquid-air partition coefficient (Comment Code K/L)
1,CCCCCCCCCCCCCC(=O)OCC [Material 388],K (Log of liquid dish neat product liquid-air partition coefficient greater than or equal to 7)
2,C=CC(O)(CC)CCC=C(C)C (stereo not shown) [Material 390],K (Log of liquid dish neat product liquid-air partition coefficient greater than or equal to 7)
3,CCCCCCCCCCCC(=O)OCC [Material 391],K (Log of liquid dish neat product liquid-air partition coefficient greater than or equal to 7)
4,CCCCCCCCCC(=O)OCC [Material 397],K (Log of liquid dish neat product liquid-air partition coefficient greater than or equal to 7)
5,CCC1=CCCC(C)(C)C12C=CC(C)O2 (stereo not shown) [Material 413],K (Log of liquid dish neat product liquid-air partition coefficient greater than or equal to 7)
6,C=CC1(C)CCC(C(C)(C)O)CC1C(=C)C (stereo not shown) [Material 414],K (Log of liquid dish neat product liquid-air partition coefficient greater than or equal to 7)
7,CCOC(C)OCCc1ccccc1 (stereo not shown) [Material 415],K (Log of liquid dish neat product liquid-air partition coefficient greater than or equal to 7)
8,CC1=CCC(C=CC(C)C(C)O)C1(C)C (stereo not shown) [Material 416],K (Log of liquid dish neat product liquid-air partition coefficient greater than or equal to 7)
9,O=CCCC=C1CC2CC1C1CCCC21 (stereo not shown) [Material 418],K (Log of liquid dish neat product liquid-air partition coefficient greater than or equal to 7)
10,CCCCCCCCCCCC(OC)OC [Material 421],K (Log of liquid dish neat product liquid-air partition coefficient greater than or equal to 7)
11,c1ccc(Oc2ccccc2)cc1 [Material 428],K (Log of liquid dish neat product liquid-air partition coefficient greater than or equal to 7)
12,c1ccc(Cc2ccccc2)cc1 [Material 429],K (Log of liquid dish neat product liquid-air partition coefficient greater than or equal to 7)
13,CCCC(=O)OC(C)(C)Cc1ccccc1 [Material 432],K (Log of liquid dish neat product liquid-air partition coefficient greater than or equal to 7)
14,C=C(C)C1CCC(C)C(OC(C)=O)C1 (stereo not shown) [Material 444],K (Log of liquid dish neat product liquid-air partition coefficient greater than or equal to 7)
15,CCCCCCC1C(=O)CCC1C(=O)OC (stereo not shown) [Material 450],K (Log of liquid dish neat product liquid-air partition coefficient greater than or equal to 7)
16,c1ccc(CCc2ccccc2)cc1 [Material 457],K (Log of liquid dish neat product liquid-air partition coefficient greater than or equal to 7)
17,C=CC1(C)CCC(C(C)C)=CC1C(=C)C (stereo not shown) [Material 461],K (Log of liquid dish neat product liquid-air partition coefficient greater than or equal to 7)
18,CCCCCCCC1CCCC(=O)O1 (stereo not shown) [Material 463],K (Log of liquid dish neat product liquid-air partition coefficient greater than or equal to 7)
19,CC=CC(=O)C1C(C)C=CCC1(C)C (stereo not shown) [Material 466],K (Log of liquid dish neat product liquid-air partition coefficient greater than or equal to 7)
20,C=CCCCCCCCCO [Material 470],K (Log of liquid dish neat product liquid-air partition coefficient greater than or equal to 7)
21,CCCCCCCCCCOC(=O)CC [Material 471],K (Log of liquid dish neat product liquid-air partition coefficient greater than or equal to 7)

row,Structure (SMILES),Log of liquid dish neat product liquid-air partition coefficient (Comment Code K/L)
1,CCCCCCCCCC(OCC)OCC [Material 473],K (Log of liquid dish neat product liquid-air partition coefficient greater than or equal to 7)
2,OC1CCC2CCCCC2C1 (stereo not shown) [Material 474],K (Log of liquid dish neat product liquid-air partition coefficient greater than or equal to 7)
3,CC=CC(=O)OC(C)C1CCCCC1 (stereo not shown) [Material 475],K (Log of liquid dish neat product liquid-air partition coefficient greater than or equal to 7)
4,CC(C=O)Cc1ccc(C(C)C)cc1 (stereo not shown) [Material 478],K (Log of liquid dish neat product liquid-air partition coefficient greater than or equal to 7)
5,O=C1CCCCCCCCCCCCCC1 [Material 480],K (Log of liquid dish neat product liquid-air partition coefficient greater than or equal to 7)
6,CCCC(=O)OC1CC2CC1C1CC=CC21 (stereo not shown) [Material 484],K (Log of liquid dish neat product liquid-air partition coefficient greater than or equal to 7)
7,CC1(C)CCCC2=C1CC(C=O)CC2 (stereo not shown) [Material 486],K (Log of liquid dish neat product liquid-air partition coefficient greater than or equal to 7)
8,CC(C)C(=O)OC1CC2CC1C1C=CCC21 (stereo not shown) [Material 487],K (Log of liquid dish neat product liquid-air partition coefficient greater than or equal to 7)
9,C=CC1(C)Cc2occ(C)c2CC1C(=C)C (stereo not shown) [Material 488],K (Log of liquid dish neat product liquid-air partition coefficient greater than or equal to 7)
10,CC(C)c1ccc(CO)cc1 [Material 491],K (Log of liquid dish neat product liquid-air partition coefficient greater than or equal to 7)
11,c1ccc2occc2c1 [Material 493],K (Log of liquid dish neat product liquid-air partition coefficient greater than or equal to 7)
12,c1ccc(CCCc2ccccn2)cc1 [Material 497],K (Log of liquid dish neat product liquid-air partition coefficient greater than or equal to 7)
13,CCCCCCCCCCCC#N [Material 498],K (Log of liquid dish neat product liquid-air partition coefficient greater than or equal to 7)
14,CC(=CC#N)CCc1ccccc1 [Material 505],K (Log of liquid dish neat product liquid-air partition coefficient greater than or equal to 7)
15,CC(C)=CCCC(C)=CC1OCC(C)O1 (stereo not shown) [Material 519],K (Log of liquid dish neat product liquid-air partition coefficient greater than or equal to 7)
16,COC(C=C(C)CCC=C(C)C)OC [Material 520],K (Log of liquid dish neat product liquid-air partition coefficient greater than or equal to 7)
17,CCOC(C=C(C)CCC=C(C)C)OCC [Material 521],K (Log of liquid dish neat product liquid-air partition coefficient greater than or equal to 7)
18,C=C(C)C1CC=C(C)C(O)C1 (stereo not shown) [Material 531],K (Log of liquid dish neat product liquid-air partition coefficient greater than or equal to 7)
19,CC/C=C\CCOC(=O)C/C=C\CC [Material 534],K (Log of liquid dish neat product liquid-air partition coefficient greater than or equal to 7)
20,CC/C=C\CCOC(=O)c1ccccc1 [Material 541],K (Log of liquid dish neat product liquid-air partition coefficient greater than or equal to 7)
